Test [1] concerns pERK1/2(THR202/TYR204) level in SW620 cell line. In words: KRAS G12V pERK assay in SW620 cells (HTRF). It is filed as cell-based. The settings on record: Homo sapiens, SW-620, Table 4, 2 hrs compound treatment. The protocol:
SW620 cell line was used in this study. Cells were maintained in RPMI 1640 supplemented with 10% fetal bovine serum (Thermo Fisher), 50 units/mL penicillin and streptomycin (Thermo Fisher) and kept at 37° C. in a humidified atmosphere of 5% CO2 in air. Cells were reinstated from frozen stocks that were laid down within 30 passages from the original cells purchased. 40000 cells per well were seeded into a 96-well plate and incubated overnight. Cells were treated with a 10-point dilution series. The final compound concentration is from 0 to 10 μM. After 2 hrs compound treatment, cells were lysed, and the pERK1/2(THR202/TYR204) level in the cell lysates was detected by HTRF kit (Cisbio). In brief, a total of 16 μL of cell lysate from each well of a 96-well plate was transferred to a 384-well white assay plate. Lysate from each well was incubated with 2 μL of Eu3+-cryptate (donor) labeled anti-phospho-ERK1/2 and 2 μL of D)2 (acceptor) labeled anti-phospho-ERK1/2 antibodies (Cisbio) overnight in dark at room temperature. When donor and acceptor are in close proximity, excitation of the donor with laser triggers a Fluorescence Resonance Energy Transfer (FRET) towards the acceptor, which in turn fluoresces at 655 nm wavelength. FRET signals were measured using a PHERAstar FSX reader (BMG Labtech). IC50 determination was performed by fitting the curve of percent inhibition versus the log of the inhibitor concentration using Dotmatics.

Test [2] addresses GST-tagged GDP-loaded KRAS G12V (amino acids 1-169) (Homo sapiens, UniProt P01116, G12V). Put plainly: KRAS G12V probe displacement assay (TR-FRET). It is filed as binding. The settings on record: Table 4; KRAS G12V 2 nM, biotinylated probe 2 2.5 nM. The protocol: Plates are incubated at 24 °C for 1 hr. […] After 1 hr incubation at 24° C.

pIC50: −log10 of the molar value.

GST-tagged GDP-loaded KRAS G12V (amino acids 1-169), sequence (P01116 1-169 isoform P01116-2 G12V): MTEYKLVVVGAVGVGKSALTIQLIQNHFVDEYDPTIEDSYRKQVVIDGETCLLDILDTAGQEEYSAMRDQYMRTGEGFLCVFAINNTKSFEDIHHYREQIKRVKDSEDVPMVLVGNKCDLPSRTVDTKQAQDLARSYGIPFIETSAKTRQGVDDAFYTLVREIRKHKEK

As to `CN1c2nc(OC[C@@]34CCCN3C[C@H](F)C4)nc3c(F)c(-c4cc(N)cc(Cl)c4C(F)(F)F)nc(c23)O[C@@H]2CCC[C@H](O)[C@H]21` (relative stereo) [Example 47, (7aR*,11S*,11aR*)-5-(5-amino-3-chloro-2-(trifluoromethyl)phenyl)-4-fluoro-2-(((2R,7aS)-2-fluorotetrahydro-1H-pyrrolizin-7a(5H)-yl)methoxy)-12-methyl-7a, 8,10,11,11a, 12-hexahydro-9H-7-oxa-1,3,6,12-tetraazapleiaden-11-ol], the values for the pIC50 in test [1] and in test [2] were 7.14 and 9.21, respectively.

On to `CN1c2nc(OC[C@@]34CCCN3C[C@H](F)C4)nc3c(F)c(-c4cc(N)cc(Cl)c4C(F)(F)F)nc(c23)OC[C@H]2COC[C@@H]21` (single isomer, unassigned) [Example 68 Isomer 1], for which the pIC50 in test [1] is 7.29; in test [2], 8.74.

For the molecule `C#Cc1c(F)ccc2cc(O)cc(-c3cc4c5c(nc(OC[C@@]67CCCN6C[C@H](F)C7)nc5c3F)N(C)CCCO4)c12` [Example 1, 5-ethynyl-6-fluoro-4-(11-fluoro-2-(((2R,7aS)-2-fluorotetrahydro-1H-pyrrolizin-7a(5H)-yl)methoxy)-4-methyl-4,5,6,7-tetrahydro-[1,5]oxazocino[4,3,2-de]quinazolin-10-yl)naphthalen-2-ol], the pIC50 is 6.20 in test [1] and 8.49 in test [2].

Turning to `Cc1cc(N)cc(-c2nc3c4c(nc(OC[C@@]56CCCN5C[C@H](F)C6)nc4c2F)N(C)CCO3)c1C(F)(F)F` [Example 3, 3-(4-fluoro-2-(((2R,7aS)-2-fluorotetrahydro-1H-pyrrolizin-7a(5H)-yl)methoxy)-10-methyl-9,10-dihydro-8H-7-oxa-1,3,6,10-tetraazacyclohepta[de]naphthalen-5-yl)-5-methyl-4-(trifluoromethyl)aniline], the negative-log IC50 (pIC50) in test [1] was 6.40; in test [2], 7.82.

On to `Nc1cc(Cl)c(C(F)(F)F)c(-c2nc3c4c(nc(OC[C@@]56CCCN5C[C@H](F)C6)nc4c2F)N(C2CC2)CCCO3)c1` [Example 4, 3-chloro-5-(11-cyclopropyl-4-fluoro-2-(((2R,7aS)-2-fluorotetrahydro-1H-pyrrolizin-7a(5H)-yl)methoxy)-8,9,10,11-tetrahydro-7-oxa-1,3,6,11-tetraazacycloocta[de]naphthalen-5-yl)-4-(trifluoromethyl)aniline], for which the figures for the pIC50 in test [1] and in test [2] were 6.26 and 8.09, respectively.

For `C#Cc1c(F)ccc2cc(O)cc(-c3nc4c5c(nc(OC[C@@]67CCCN6C[C@H](F)C7)nc5c3F)N(C3CC3)CCCO4)c12` [Example 5, 4-(11-cyclopropyl-4-fluoro-2-(((2R,7aS)-2-fluorotetrahydro-1H-pyrrolizin-7a(5H)-yl)methoxy)-8,9,10,11-tetrahydro-7-oxa-1,3,6,11-tetraazacycloocta[de]naphthalen-5-yl)-5-ethynyl-6-fluoronaphthalen-2-ol], the pIC50 in test [1] is 6.54; in test [2] it was 9.06.

In the case of `CC1CCOc2nc(-c3cc(N)cc(Cl)c3C(F)(F)F)c(F)c3nc(OC[C@@]45CCCN4C[C@H](F)C5)nc(c23)N1C` (stereo partly drawn) [Example 6, 3-chloro-5-(4-fluoro-2-(((2R,7aS)-2-fluorotetrahydro-1H-pyrrolizin-7a(5H)-yl)methoxy)-10,11-dimethyl-8,9,10,11-tetrahydro-7-oxa-1,3,6,11-tetraazacycloocta[de]naphthalen-5-yl)-4-(trifluoromethyl)aniline], the values for the pIC50 in test [1] and in test [2] were 7.20 and 8.74, respectively.

On to `Nc1cc(Cl)c(C(F)(F)F)c(-c2nc3c4c(nc(OC[C@@]56CCCN5C[C@H](F)C6)nc4c2F)N(CCO)CCO3)c1` [Example 7, 2-(5-(5-amino-3-chloro-2-(trifluoromethyl)phenyl)-4-fluoro-2-(((2R,7aS)-2-fluorotetrahydro-1H-pyrrolizin-7a(5H)-yl)methoxy)-8,9-dihydro-10H-7-oxa-1,3,6,10-tetraazacyclohepta[de]naphthalen-10-yl)ethan-1-ol], for which the results for the pIC50 in test [1] and in test [2] were 6.23 and 8.60, respectively.

Regarding `Nc1cc(Cl)c(C(F)(F)F)c(-c2nc3c4c(nc(OC[C@@]56CCCN5C[C@H](F)C6)nc4c2F)N(C2CC2)CCO3)c1` [Example 8, 3-chloro-5-(10-cyclopropyl-4-fluoro-2-(((2R,7aS)-2-fluorotetrahydro-1H-pyrrolizin-7a(5H)-yl)methoxy)-9,10-dihydro-8H-7-oxa-1,3,6,10-tetraazacyclohepta[de]naphthalen-5-yl)-4-(trifluoromethyl)aniline], the results for the pIC50 in test [1] and in test [2] were 6.15 and 8.00, respectively.

Turning to `CN1CCCOc2nc(-c3cc(N)cc(Cl)c3C(F)(F)F)c(F)c3nc(OC[C@@]45CCCN4C[C@H](F)C5)nc1c23` [Example 9, 3-chloro-5-(4-fluoro-2-(((2R,7aS)-2-fluorotetrahydro-1H-pyrrolizin-7a(5H)-yl)methoxy)-11-methyl-8,9,10,11-tetrahydro-7-oxa-1,3,6,11-tetraazacycloocta[de]naphthalen-5-yl)-4-(trifluoromethyl)aniline], the values for the negative logarithm of the IC50 (pIC50) in test [1] and in test [2] were 6.60 and 8.28, respectively.

For `CN1CC2(COC2)COc2nc(-c3cc(N)cc(Cl)c3C(F)(F)F)c(F)c3nc(OC[C@@]45CCCN4C[C@H](F)C5)nc1c23` [Example 11, 3-chloro-5-(4-fluoro-2-(((2R,7aS)-2-fluorotetrahydro-1H-pyrrolizin-7a(5H)-yl)methoxy)-11-methyl-10,11-dihydro-8H-7-oxa-1,3,6,11-tetraazaspiro[cycloocta[de]naphthalene-9,3′-oxetan]-1(11a), 2,3a, 3 al(6a), 5-pentaen-5-yl)-4-(trifluoromethyl)aniline], the negative logarithm of the IC50 (pIC50) is 6.20 in test [1] and 7.80 in test [2].

Turning to `CC1CN(C)c2nc(OC[C@@]34CCCN3C[C@H](F)C4)nc3c(F)c(-c4cc(N)cc(Cl)c4C(F)(F)F)nc(c23)O1` (stereo partly drawn) [Example 12, 3-chloro-5-(4-fluoro-2-(((2R,7aS)-2-fluorotetrahydro-1H-pyrrolizin-7a(5H)-yl)methoxy)-8,10-dimethyl-9,10-dihydro-8H-7-oxa-1,3,6,10-tetraazacyclohepta[de]naphthalen-5-yl)-4-(trifluoromethyl)aniline], the pIC50 was 6.82 in test [1] and 8.49 in test [2].

With `C#Cc1c(F)ccc2cc(O)cc(-c3nc4c5c(nc(OC[C@@]67CCCN6C[C@H](F)C7)nc5c3F)N(C3CCC3)CCCO4)c12` [Example 13, 4-(11-cyclobutyl-4-fluoro-2-(((2R,7aS)-2-fluorotetrahydro-1H-pyrrolizin-7a(5H)-yl)methoxy)-8,9,10,11-tetrahydro-7-oxa-1,3,6,11-tetraazacycloocta[de]naphthalen-5-yl)-5-ethynyl-6-fluoronaphthalen-2-ol], the figures for the negative-log IC50 (pIC50) in test [1] and in test [2] were 6.85 and 8.85, respectively.

As for `CC1CCN(C)c2nc(OC[C@@]34CCCN3C[C@H](F)C4)nc3c(F)c(-c4cc(N)cc(Cl)c4C(F)(F)F)nc(c23)O1` (stereo partly drawn) [Example 14, 3-chloro-5-(4-fluoro-2-(((2R,7aS)-2-fluorotetrahydro-1H-pyrrolizin-7a(5H)-yl)methoxy)-8,11-dimethyl-8,9,10,11-tetrahydro-7-oxa-1,3,6,11-tetraazacycloocta[de]naphthalen-5-yl)-4-(trifluoromethyl)aniline], the pIC50 in test [1] was 6.38; in test [2], 7.89.

With `CC1COc2nc(-c3cc(N)cc(Cl)c3C(F)(F)F)c(F)c3nc(OC[C@@]45CCCN4C[C@H](F)C5)nc(c23)N(C)C1` (stereo partly drawn) [Example 15, 3-chloro-5-(4-fluoro-2-(((2R,7aS)-2-fluorotetrahydro-1H-pyrrolizin-7a(5H)-yl)methoxy)-9,11-dimethyl-8,9,10,11-tetrahydro-7-oxa-1,3,6,11 tetraazacycloocta[de]naphthalen-5-yl)-4-(trifluoromethyl)aniline], the figures for the pIC50 in test [1] and in test [2] were 6.43 and 8.07, respectively.

For the molecule `CCc1c(F)ccc2cc(O)cc(-c3nc4c5c(nc(OC[C@@]67CCCN6C[C@H](F)C7)nc5c3F)N(C)C(C)CCO4)c12` (stereo partly drawn) [Example 16, 5-ethyl-6-fluoro-4-(4-fluoro-2-(((2R,7aS)-2-fluorotetrahydro-1H-pyrrolizin-7a(5H)-yl)methoxy)-10,11-dimethyl-8,9,10,11-tetrahydro-7-oxa-1,3,6,11-tetraazacycloocta[de]naphthalen-5-yl)naphthalen-2-ol], the pIC50 was 7.30 in test [1] and 8.85 in test [2].

In the case of `CN1c2nc(OC[C@@]34CCCN3C[C@H](F)C4)nc3c(F)c(-c4ccc(F)c5sc(N)c(C#N)c45)c(Cl)c(c23)OCC12COC2` [Example 18, 2-amino-4-(8′-chloro-10′-fluoro-2′-(((2R,7aS)-2-fluorotetrahydro-1H-pyrrolizin-7a(5H)-yl)methoxy)-4′-methyl-4′H, 6′H-spiro[oxetane-3,5′-[1,4]oxazepino[5,6,7-de]quinazolin]-9′-yl)-7-fluorobenzo[b]thiophene-3-carbonitrile], the values for the pIC50 in test [1] and in test [2] were 7.26 and 9.08, respectively.

Usually pIC50 stands for the IC50 on a negative log10 scale, so that one unit is a factor of ten. Low readings indicate a large IC50, high ones a small IC50.

The values are drawn from US20240262848A1, “HETEROCYCLIC COMPOUNDS, COMPOSITIONS THEREOF, AND METHODS OF TREATMENT THEREWITH” (BeiGene, Ltd., priority 2022, published 2024).
